Test results as given in patent US11408885B2, “Compositions and multiplex assays for characterizing active proteases and their inhibitors” (Massachusetts Institute of Technology, priority 2017, dated 2022).

Experiments:
Assay in all cases: FRET substrate cleavage by recombinant MMP, inhibition by activity-based probe
Assay type in all cases: biochemical
[1] = molecular target: MMP9 (Homo sapiens, UniProt P14780); set-up: The recombinant catalytic domains of human MMPs 7 and 9 were purchased from Enzo Life Sciences, and of MMP 12 from Anaspec; purchased Enzo Life Sciences; conditions: FRET substrate PEPDAB011 10 μM, read-out: IC50, inhibition of substrate cleavage of active MMP
Description: (§1) The binding of an activity-based probe, e.g., HxBP-Bt, to the active site of an MMP (as shown in FIG. 1A) would effectively reduce (or inhibit) the ability of such MMP to cleave its substrate. […] This correlation should also provide an IC50 value to measure the sensitivity/potency of the MAMBI system to bind, and thereby quantify, active MMPs. […] Fluorescence resonance energy transfer (FRET) technique is used to determine if a substrate is cleaved by pre-labeling two parts of a substrate molecule with a donor chromophore and an acceptor chromophore, respectively, and measuring the energy transfer efficiency from the donor to the acceptor chromophore to determine if two fluorophores are within a certain distance of each other, i.e. the substrate is intact and uncleaved. […] The fluorescence was monitored by plate reader. In general, readings measured fluorescence every 20 minutes for roughly five hours and the reported rate of increase in fluorescence was calculated from fitting a linear portion of this increase including at least 4 data points and subtracting the average increase in background, protease-free conditions. […] Reaction velocities were calculated from linear reaction periods from raw fluorescence value time courses. […] Relative rates of FRET substrate cleavage among samples with the addition of HxBP-Bt were quantified and compared with the rates without HxBP-Bt. […]

[2] = molecular target: T1, MMP7 (Homo sapiens, UniProt P09237); set-up: The recombinant catalytic domains of human MMPs 7 and 9 were purchased from Enzo Life Sciences, and of MMP 12 from Anaspec; purchased Enzo Life Sciences; conditions: FRET substrate PEPDAB008 10 μM, read-out: IC50, inhibition of substrate cleavage of active MMP
T1 sequence (P09237 95-267): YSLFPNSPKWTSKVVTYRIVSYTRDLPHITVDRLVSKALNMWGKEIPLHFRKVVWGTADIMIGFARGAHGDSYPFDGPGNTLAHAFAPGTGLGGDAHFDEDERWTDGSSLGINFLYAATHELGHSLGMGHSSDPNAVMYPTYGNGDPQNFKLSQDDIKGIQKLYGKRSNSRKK
Description: as §1

[3] = molecular target: MMP13 (Homo sapiens, UniProt P45452); conditions: FRET substrate PEPDAB008 10 μM, read-out: IC50, inhibition of substrate cleavage of active MMP
Description: (§2) The binding of an activity-based probe, e.g., HxBP-Bt, to the active site of an MMP (as shown in FIG. 1A) would effectively reduce (or inhibit) the ability of such MMP to cleave its substrate. […] This correlation should also provide an IC50 value to measure the sensitivity/potency of the MAMBI system to bind, and thereby quantify, active MMPs. […] Fluorescence resonance energy transfer (FRET) technique is used to determine if a substrate is cleaved by pre-labeling two parts of a substrate molecule with a donor chromophore and an acceptor chromophore, respectively, and measuring the energy transfer efficiency from the donor to the acceptor chromophore to determine if two fluorophores are within a certain distance of each other, i.e. the substrate is intact and uncleaved. Here, HxBP-Bt bound MMP samples were mixed with chromophore-labeled substrate peptides in 384-well OptiPlates® at 37° C. using timelapse fluorimetry in the Spectromax® M3 and M2e fluorimeters (Molecular Devices). The fluorescence was monitored by plate reader. In general, readings measured fluorescence every 20 minutes for roughly five hours and the reported rate of increase in fluorescence was calculated from fitting a linear portion of this increase including at least 4 data points and subtracting the average increase in background, protease-free conditions. […] Reaction velocities were calculated from linear reaction periods from raw fluorescence value time courses. […] Relative rates of FRET substrate cleavage among samples with the addition of HxBP-Bt were quantified and compared with the rates without HxBP-Bt. Activities of recombinant MMPs 1, 7, 8, 12 and 13, in the presence or absence of HxBP-Bt probe, were characterized with […]008 (Dabcyl-[…]); MMPs 2 and 9 with […]011 (Dabcyl-[…]) and MMPs 3 and 10 with […]052 (Dabcyl-[…]). […] These IC50 values were used to estimate binding off-rates in the computational model. IC50 of the inhibitor was calculated by fitting the resulting dose-dependent data with the PRISM software (GraphPad, USA)

[4] = molecular target: MMP8 (Homo sapiens, UniProt P22894); conditions: FRET substrate PEPDAB008 10 μM, read-out: IC50, inhibition of substrate cleavage of active MMP
Description: as §2

[5] = molecular target: MMP10 (Homo sapiens, UniProt P09238); conditions: FRET substrate PEPDAB052 10 μM, read-out: IC50, inhibition of substrate cleavage of active MMP
Description: as §2

[6] = molecular target: T2, MMP2 (Homo sapiens, UniProt P08253); set-up: purchased Peprotech; conditions: FRET substrate PEPDAB011 10 μM, read-out: IC50, inhibition of substrate cleavage of active MMP
T2 sequence (P08253 110-660): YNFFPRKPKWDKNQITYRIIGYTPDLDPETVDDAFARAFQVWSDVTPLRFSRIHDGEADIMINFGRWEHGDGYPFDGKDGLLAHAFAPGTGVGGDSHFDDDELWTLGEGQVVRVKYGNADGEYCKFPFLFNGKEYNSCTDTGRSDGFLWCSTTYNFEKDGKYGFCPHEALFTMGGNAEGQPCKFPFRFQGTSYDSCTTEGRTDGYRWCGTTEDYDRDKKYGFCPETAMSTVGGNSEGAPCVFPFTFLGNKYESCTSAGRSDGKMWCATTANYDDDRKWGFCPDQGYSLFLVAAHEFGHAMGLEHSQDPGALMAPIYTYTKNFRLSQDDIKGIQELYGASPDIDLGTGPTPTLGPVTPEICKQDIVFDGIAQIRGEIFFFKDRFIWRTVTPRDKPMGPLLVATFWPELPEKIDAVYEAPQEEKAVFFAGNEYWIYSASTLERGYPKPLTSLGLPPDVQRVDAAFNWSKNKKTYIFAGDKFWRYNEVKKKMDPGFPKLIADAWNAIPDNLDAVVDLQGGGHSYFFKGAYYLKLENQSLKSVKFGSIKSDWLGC
Description: as §2

[7] = molecular target: T3, MMP1 (Homo sapiens, UniProt P03956); set-up: purchased Peprotech; conditions: FRET substrate PEPDAB008 10 μM, read-out: IC50, inhibition of substrate cleavage of active MMP
T3 sequence (P03956 100-469): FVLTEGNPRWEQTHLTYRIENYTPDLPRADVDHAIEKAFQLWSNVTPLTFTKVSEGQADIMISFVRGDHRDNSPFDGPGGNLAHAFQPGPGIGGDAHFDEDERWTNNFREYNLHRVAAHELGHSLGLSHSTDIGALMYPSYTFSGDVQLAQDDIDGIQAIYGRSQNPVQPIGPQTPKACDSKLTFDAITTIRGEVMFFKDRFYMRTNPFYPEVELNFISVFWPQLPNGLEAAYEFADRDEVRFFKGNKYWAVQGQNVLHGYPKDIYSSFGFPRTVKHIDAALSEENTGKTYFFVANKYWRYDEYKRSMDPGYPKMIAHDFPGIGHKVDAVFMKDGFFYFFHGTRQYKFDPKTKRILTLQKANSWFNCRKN
Description: as §2

[8] = molecular target: MMP3 (Homo sapiens, UniProt P08254); set-up: purchased Peprotech; conditions: FRET substrate PEPDAB052 10 μM, read-out: IC50, inhibition of substrate cleavage of active MMP
Description: as §2

Sequence of MMP9 (P14780 107-449 limits assumed): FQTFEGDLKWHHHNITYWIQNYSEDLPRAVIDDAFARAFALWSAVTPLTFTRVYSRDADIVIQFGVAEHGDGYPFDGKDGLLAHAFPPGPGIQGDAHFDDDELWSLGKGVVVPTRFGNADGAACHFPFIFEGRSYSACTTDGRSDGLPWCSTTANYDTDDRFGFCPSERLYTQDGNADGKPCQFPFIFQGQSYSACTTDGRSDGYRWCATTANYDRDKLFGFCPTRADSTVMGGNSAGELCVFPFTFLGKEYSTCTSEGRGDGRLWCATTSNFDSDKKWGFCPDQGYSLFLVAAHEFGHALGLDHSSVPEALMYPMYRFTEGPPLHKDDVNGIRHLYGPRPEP
Sequence of MMP8 (P22894 101-467, species assumed): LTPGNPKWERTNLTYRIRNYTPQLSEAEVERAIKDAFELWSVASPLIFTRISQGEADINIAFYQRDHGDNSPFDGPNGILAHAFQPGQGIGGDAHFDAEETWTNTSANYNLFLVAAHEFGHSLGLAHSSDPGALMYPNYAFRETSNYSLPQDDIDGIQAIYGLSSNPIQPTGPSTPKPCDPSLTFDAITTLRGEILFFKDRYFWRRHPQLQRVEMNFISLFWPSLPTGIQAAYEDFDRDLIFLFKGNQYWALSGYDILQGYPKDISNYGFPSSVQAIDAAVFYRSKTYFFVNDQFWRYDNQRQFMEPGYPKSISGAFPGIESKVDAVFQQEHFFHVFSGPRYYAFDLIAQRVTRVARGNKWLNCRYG
Sequence of MMP10 (P09238 99-476): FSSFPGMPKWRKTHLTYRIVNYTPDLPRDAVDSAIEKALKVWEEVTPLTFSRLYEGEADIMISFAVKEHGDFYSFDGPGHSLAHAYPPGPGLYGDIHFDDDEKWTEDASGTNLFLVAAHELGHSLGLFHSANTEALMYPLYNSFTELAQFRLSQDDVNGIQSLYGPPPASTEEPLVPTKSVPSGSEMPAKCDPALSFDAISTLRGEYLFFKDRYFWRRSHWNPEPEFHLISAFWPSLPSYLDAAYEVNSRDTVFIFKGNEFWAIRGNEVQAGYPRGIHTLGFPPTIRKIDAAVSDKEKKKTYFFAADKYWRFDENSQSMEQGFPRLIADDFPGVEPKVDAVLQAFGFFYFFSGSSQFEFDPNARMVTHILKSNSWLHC
Sequence of MMP3 (P08254 100-477): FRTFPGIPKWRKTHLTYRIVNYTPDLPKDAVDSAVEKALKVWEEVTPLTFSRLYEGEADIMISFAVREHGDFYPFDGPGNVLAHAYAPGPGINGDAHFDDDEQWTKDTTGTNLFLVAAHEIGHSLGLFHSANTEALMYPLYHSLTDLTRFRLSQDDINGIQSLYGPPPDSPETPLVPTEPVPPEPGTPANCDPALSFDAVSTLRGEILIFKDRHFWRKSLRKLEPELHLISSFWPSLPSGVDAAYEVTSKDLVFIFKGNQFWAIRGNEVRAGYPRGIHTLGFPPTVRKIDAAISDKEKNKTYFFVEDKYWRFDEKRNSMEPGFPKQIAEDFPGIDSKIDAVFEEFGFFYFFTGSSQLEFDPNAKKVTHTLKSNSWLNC

IC50 [1]: 2.7 nM
IC50 [2]: 9.2 nM
IC50 [3]: 2.3 nM
IC50 [4]: 2.4 nM
IC50 [5]: 29 nM
IC50 [6]: 3.3 nM
IC50 [7]: 2.1 nM
IC50 [8]: 61 nM
SMILES: CC(C)CC(C(=O)NC(Cc1ccc(C(=O)c2ccccc2)cc1)C(=O)NCCOCCOCCOCC(=O)NCC(C)(C)SSC(C)(C)CNC(=O)CCCCC1SCC2NC(=O)NC21)C(O)C(=O)NO (centres unmarked) [HxBP-Bt, biotin-tagged hydroxamate benzophenone (HxBP-Bt) probe]
